This is an account of results in patent US11192888B2, “Antibacterial compounds” (priority 2017, dated 2021).

Each structure is given as a SMILES string. Values after ≈ are worked out from the molar mass of the structure shown.

The test system of assay [1] is Clostridium difficile ATCC 43255. Briefly: CLSI MIC, representative gut bacteria. The note with it: Clostridioides difficile, ATCC43255; Clostridium difficile ATCC 43255; read-out: MIC. Type of assay: cell-based. How it is done: (§1) Comparative in vitro bacterial susceptibility to compounds 3, 9 and 10, vancomycin and metronidazole was determined using methods according to the Clinical and Laboratory Standard Institute (CLSI) approved guidelines (M7-A10, M11-A7 or M45-A2) for anaerobic and aerobic organisms.

For assay [2], the system named is Clostridium sordellii ATCC 9714. Briefly: CLSI MIC, representative gut bacteria. Type of assay: cell-based. The note with it: Paraclostridium sordellii, ATCC9714, read-out: MIC. On the procedure:
as §1

Assay [3] has as its system Clostridium perfringens NCTC 8237. Briefly: microbe, parasite or virus in culture.
Assay [4] relates to Bacteroides fragilis ATCC 25285. The experiment in a line: microbe, parasite or virus in culture. Conditions: ATCC25285.
For assay [5], the system named is Clostridium ramosum DSM 1402. Briefly: microbe, parasite or virus in culture. Conditions: Thomasclavelia ramosa, DSM1402.
Assay [6] deals with Clostridium innocuum DSM 1286. Briefly: microbe, parasite or virus in culture. The note with it: DSM1286.
In assay [7] the test system is Propionibacterium acnes ATCC 6919. The experiment in a line: microbe, parasite or virus in culture. Conditions: Cutibacterium acnes, ATCC6919.
For assay [8], the system named is Bifidobacterium bifidum ATCC 11863. The experiment in a line: microbe, parasite or virus in culture. Conditions: ATCC11863.
In assay [9] the test system is Bifidobacterium breve ATCC 15700. Briefly: microbe, parasite or virus in culture. Conditions: ATCC15700.
The test system of assay [10] is Actinomyces viscosus DSM 43327. The experiment in a line: microbe, parasite or virus in culture. Conditions: DSM43327.

With `Cc1ncc([N+](=O)[O-])n1CCO` [Metronidazole], the MIC in assay [1] was found to be 0.5 µg/mL (≈ 2.92 µM); in assay [2], 1 µg/mL (≈ 5.84 µM); in assay [3], 1 µg/mL (≈ 5.84 µM); in assay [4], 0.5 µg/mL (≈ 2.92 µM); in assay [5], 4 µg/mL (≈ 23.4 µM); in assay [6], 0.5 µg/mL (≈ 2.92 µM). The MIC was more than 64 µg/mL in assay [7], 2 µg/mL (≈ 11.7 µM) in assay [8], 4 µg/mL (≈ 23.4 µM) in [9] and 2 µg/mL (≈ 11.7 µM) in assay [10].
